From PubChem BioAssay AID1963871 (Molecular Pharmacology Branch, DTP, NCI, 2024)

Test system: KRAS-mutant PDC multicell tumor spheroid viability
Assay: Anticancer human tumor 521955-158-R2-J5-PDC patient-derived pancreatic carcinoma cell line growth inhibition [KRAS2]
Details: for IC50: curve of first compound; for viability, T/C: stronger effect = lower value; active = viability on the fitted dose curve at most 10% of control; inactive = the rest
Outline: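 Combination screen of spheroid viability in tumor-cell co-cultures with endothelial (HUVEC) and mesenchymal stem cell stroma. Each agent was tested in half-log dilutions, topping at clinical Cmax or at 10 microM without a known Cmax.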

[1] = second compound 0.0316 µM, first compound 0.000316 µM
[2] = second compound 0.0316 µM, first compound 0.001 µM
[3] = second compound 0.0316 µM, first compound 0.00316 µM
[4] = second compound 0.0316 µM, first compound 0.01 µM
[5] = second compound 0.0316 µM, first compound 0.0316 µM
[6] = second compound 0.1 µM, first compound 0.000316 µM
[7] = second compound 0.1 µM, first compound 0.001 µM
[8] = second compound 0.1 µM, first compound 0.00316 µM
[9] = second compound 0.1 µM, first compound 0.01 µM
[10] = second compound 0.1 µM, first compound 0.0316 µM
[11] = second compound 0.316 µM, first compound 0.000316 µM
[12] = second compound 0.316 µM, first compound 0.001 µM
[13] = second compound 0.316 µM, first compound 0.00316 µM
[14] = second compound 0.316 µM, first compound 0.01 µM
[15] = second compound 0.316 µM, first compound 0.0316 µM
[16] = second compound 1 µM, first compound 0.000316 µM
[17] = second compound 1 µM, first compound 0.001 µM
[18] = second compound 1 µM, first compound 0.00316 µM
[19] = second compound 1 µM, first compound 0.01 µM
[20] = second compound 1 µM, first compound 0.0316 µM
[21] = second compound 3.16 µM, first compound 0.000316 µM
[22] = second compound 3.16 µM, first compound 0.001 µM
[23] = second compound 3.16 µM, first compound 0.00316 µM
[24] = second compound 3.16 µM, first compound 0.01 µM
[25] = second compound 3.16 µM, first compound 0.0316 µM
[26] = second compound 0.0316 µM, first compound 0.1 µM
[27] = second compound 0.1 µM, first compound 0.1 µM
[28] = second compound 0.316 µM, first compound 0.1 µM
[29] = second compound 1 µM, first compound 0.1 µM
[30] = second compound 3.16 µM, first compound 0.1 µM
[31] = second compound 0.0316 µM, first compound 0.316 µM
[32] = second compound 0.0316 µM, first compound 1 µM
[33] = second compound 0.0316 µM, first compound 3.16 µM
[34] = second compound 0.0316 µM, first compound 10 µM
[35] = second compound 0.1 µM, first compound 0.316 µM
[36] = second compound 0.1 µM, first compound 1 µM
[37] = second compound 0.1 µM, first compound 3.16 µM
[38] = second compound 0.1 µM, first compound 10 µM
[39] = second compound 0.316 µM, first compound 0.316 µM
[40] = second compound 0.316 µM, first compound 1 µM
[41] = second compound 0.316 µM, first compound 3.16 µM
[42] = second compound 0.316 µM, first compound 10 µM
[43] = second compound 1 µM, first compound 0.316 µM
[44] = second compound 1 µM, first compound 1 µM
[45] = second compound 1 µM, first compound 3.16 µM
[46] = second compound 1 µM, first compound 10 µM
[47] = second compound 3.16 µM, first compound 0.316 µM
[48] = second compound 3.16 µM, first compound 1 µM
[49] = second compound 3.16 µM, first compound 3.16 µM
[50] = second compound 3.16 µM, first compound 10 µM
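Also: viability read after seven days of drug exposure.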

CC(=O)Nc1cccc(-n2c(=O)n(C3CC3)c(=O)c3c(Nc4ccc(I)cc4F)n(C)c(=O)c(C)c32)c1 + C=CC(=O)N1CCN(c2nc(OCC3CCCN3C)nc3c2CCN(c2cccc4cccc(C)c24)C3)CC1CC#N
0.194 nM: IC50 (second compound 0.316 µM)
inactive: viability, T/C (second compound 0.0316 µM, first compound 0.0001 µM) 74.2% | viability, T/C [1] 44.9% | viability, T/C [2] 34.6% | viability, T/C [3] 26.5% | viability, T/C [4] 20.1% | viability, T/C [5] 15% | viability, T/C (second compound 0.1 µM, first compound 0.0001 µM) 61.9% | viability, T/C [6] 51.6% | viability, T/C [7] 30.3% | viability, T/C [8] 23.8% | viability, T/C [9] 18.4% | viability, T/C [10] 10.5% | viability, T/C (second compound 0.316 µM, first compound 0.0001 µM) 57.5% | viability, T/C [11] 46.9% | viability, T/C [12] 27.5% | viability, T/C [13] 21.7% | viability, T/C [14] 18.9% | viability, T/C [15] 8.09% | viability, T/C (second compound 1 µM, first compound 0.0001 µM) 69.7% | viability, T/C [16] 43.6% | viability, T/C [17] 27.8% | viability, T/C [18] 24.3% | viability, T/C [19] 18.2% | viability, T/C [20] 9.76%
0.289 nM: IC50 (second compound 0.1 µM)
0.245 nM: IC50 (second compound 1 µM)
0.288 nM: IC50 (second compound 0.0316 µM)
< 0.1 nM: IC50 (second compound 3.16 µM)
active: viability, T/C (second compound 3.16 µM, first compound 0.0001 µM) 3.74% | viability, T/C [21] 5.29% | viability, T/C [22] 0.31% | viability, T/C [23] 1.92% | viability, T/C [24] 0.67% | viability, T/C [25] 0.24%

CN(C)C/C=C/C(=O)Nc1cc2c(Nc3ccc(F)c(Cl)c3)ncnc2cc1O[C@H]1CCOC1 + C=CC(=O)N1CCN(c2nc(OCC3CCCN3C)nc3c2CCN(c2cccc4cccc(C)c24)C3)CC1CC#N
> 100 nM: IC50 (second compound 0.0316 µM) | IC50 (second compound 0.1 µM) | IC50 (second compound 0.316 µM) | IC50 (second compound 1 µM)
active: viability, T/C [21] 4.17% | viability, T/C [22] 3.27% | viability, T/C [23] 1.28% | viability, T/C [24] 1.27% | viability, T/C [25] 0.96% | viability, T/C [30] 0.29%
inactive: viability, T/C [1] 97.5% | viability, T/C [2] 104% | viability, T/C [3] 75.7% | viability, T/C [4] 73.5% | viability, T/C [5] 67.9% | viability, T/C [26] 65.6% | viability, T/C [6] 83.5% | viability, T/C [7] 89.3% | viability, T/C [8] 98.8% | viability, T/C [9] 70.5% | viability, T/C [10] 76.7% | viability, T/C [27] 72.4% | viability, T/C [11] 77.8% | viability, T/C [12] 73.2% | viability, T/C [13] 65.9% | viability, T/C [14] 56.7% | viability, T/C [15] 54.7% | viability, T/C [28] 53.6% | viability, T/C [16] 73.5% | viability, T/C [17] 85.1% | viability, T/C [18] 70.4% | viability, T/C [19] 65.1% | viability, T/C [20] 58.8% | viability, T/C [29] 54.4%
< 0.316 nM: IC50 (second compound 3.16 µM)

COC(=O)c1ccc2c(C(=Nc3ccc(N(C)C(=O)CN4CCN(C)CC4)cc3)c3ccccc3)c(O)[nH]c2c1 + C=CC(=O)N1CCN(c2nc(OCC3CCCN3C)nc3c2CCN(c2cccc4cccc(C)c24)C3)CC1CC#N
< 31.6 nM: IC50 (second compound 1 µM) | IC50 (second compound 3.16 µM)
inactive: viability, T/C [5] 78% | viability, T/C [26] 67.5% | viability, T/C [31] 75.1% | viability, T/C [32] 55.9% | viability, T/C [10] 64.2% | viability, T/C [27] 69.8% | viability, T/C [35] 65.2% | viability, T/C [36] 47.7% | viability, T/C [15] 72.1% | viability, T/C [28] 69.5% | viability, T/C [39] 43.7% | viability, T/C [40] 28.6% | viability, T/C [20] 49.4% | viability, T/C [29] 50.6% | viability, T/C [43] 37.3% | viability, T/C [44] 26.4%
864 nM: IC50 (second compound 0.1 µM)
280 nM: IC50 (second compound 0.316 µM)
active: viability, T/C [33] 9.24% | viability, T/C [34] 0.33% | viability, T/C [37] 8.93% | viability, T/C [38] 0.33% | viability, T/C [41] 2.62% | viability, T/C [42] 1.9% | viability, T/C [45] 1.74% | viability, T/C [46] 0.25% | viability, T/C [25] 1.66% | viability, T/C [30] 0.72% | viability, T/C [47] 0.77% | viability, T/C [48] 0.34% | viability, T/C [49] 0.55% | viability, T/C [50] 0.44%
1160 nM: IC50 (second compound 0.0316 µM)

O=C(c1cc(Cc2n[nH]c(=O)c3ccccc23)ccc1F)N1CCN(C(=O)C2CC2)CC1 + C=CC(=O)N1CCN(c2nc(OCC3CCCN3C)nc3c2CCN(c2cccc4cccc(C)c24)C3)CC1CC#N
< 31.6 nM: IC50 (second compound 3.16 µM)
active: viability, T/C [25] 4.24% | viability, T/C [30] 1.68% | viability, T/C [47] 1.74% | viability, T/C [48] 1.67% | viability, T/C [49] 2.07% | viability, T/C [50] 0.32%
inactive: viability, T/C [5] 104% | viability, T/C [26] 101% | viability, T/C [31] 99.4% | viability, T/C [32] 85.1% | viability, T/C [33] 80.2% | viability, T/C [34] 61.3% | viability, T/C [10] 95.2% | viability, T/C [27] 94.9% | viability, T/C [35] 93.7% | viability, T/C [36] 92.2% | viability, T/C [37] 78.5% | viability, T/C [38] 54% | viability, T/C [15] 94.2% | viability, T/C [28] 92.8% | viability, T/C [39] 84.8% | viability, T/C [40] 82.9% | viability, T/C [41] 78.3% | viability, T/C [42] 59.1% | viability, T/C [20] 100% | viability, T/C [29] 101% | viability, T/C [43] 85% | viability, T/C [44] 73.3% | viability, T/C [45] 70% | viability, T/C [46] 39.5%
6450 nM: IC50 (second compound 1 µM)
> 10000 nM: IC50 (second compound 0.0316 µM) | IC50 (second compound 0.1 µM) | IC50 (second compound 0.316 µM)
